The source made the active and inactive calls. The rule behind the calls is not given here.
Assays:
HCT-15 [1] = assay: Induction of morphological changes in human HCT15 cells assessed as formation of spherical bodies at 4 to 10 uM after 24 hrs by inverted light microscopic analysis; assay type: functional, cell-based
HCT-15 [2] = assay: Induction of cell cycle arrest in human HCT15 cells assessed as accumulation of cells at G0/G1 phase at 4 uM after 24 hrs by propidium iodide staining based flow cytometry (reference value: 77.48%); assay type: functional
HCT-15 [3] = assay: Induction of DNA damage in human HCT15 cells assessed as tail DNA at 10 uM by neutral comet assay relative to control (reference value: 0.72%); assay type: functional
HCT-15 [4] = assay: Induction of apoptosis in human HCT15 cells assessed as viable cells at 10 uM after 24 hrs by annexin V-FITC and propidium iodide staining based flow cytometry (reference value: 99.93%); assay type: functional; conditions: HCT-15, 24 h, read-out: Activity
HCT-15 [5] = assay: Induction of DNA damage in human HCT15 cells assessed as tail DNA at 4 uM by neutral comet assay relative to control (reference value: 0.72%); assay type: functional
HCT-15 [6] = assay: Induction of apoptosis in human HCT15 cells assessed as early apoptotic cells at 10 uM after 24 hrs by annexin V-FITC and propidium iodide staining based flow cytometry (reference value: 0%); assay type: functional
HCT-15 [7] = assay: Induction of DNA damage in human HCT15 cells assessed as head DNA at 10 uM by neutral comet assay relative to control (reference value: 99.27%); assay type: functional
HCT-15 [8] = assay: Induction of cell cycle arrest in human HCT15 cells assessed as accumulation of cells at G0/G1 phase at 10 uM after 24 hrs by propidium iodide staining based flow cytometry (reference value: 77.48%); assay type: functional
HCT-15 [9] = assay: Induction of cell cycle arrest in human HCT15 cells assessed as accumulation of cells at G2/M phase at 4 uM after 24 hrs by propidium iodide staining based flow cytometry (reference value: 13.77%); assay type: functional
HCT-15 [10] = assay: Induction of apoptosis in human HCT15 cells assessed as increase in caspase-9 protein expression at 4 to 10 uM after 24 hrs by Western blot analysis; assay type: functional, cell-based
HCT-15 [11] = assay: Induction of DNA damage in human HCT15 cells assessed as head DNA at 4 uM by neutral comet assay relative to control (reference value: 99.27%); assay type: functional
HCT-15 [12] = assay: Induction of DNA damage in human HCT15 cells assessed as head length at 10 uM by neutral comet assay (reference value: 53 pixel); assay type: functional
HCT-15 [13] = assay: Downregulation of cyclin D1 expression in human HCT15 cells at 4 to 10 uM after 24 hrs by Western blot anlaysis; assay type: functional, cell-based
HCT-15 [14] = assay: Induction of apoptosis in human HCT15 cells assessed as increase in cytochrome c protein expression at 4 to 10 uM after 24 hrs by Western blot analysis; assay type: functional, cell-based
HCT-15 [15] = assay: Induction of DNA damage in human HCT15 cells assessed as tail length at 10 uM by neutral comet assay (reference value: 4 pixel); assay type: functional
HCT-15 [16] = assay: Induction of apoptosis in human HCT15 cells assessed as late apoptotic cells at 10 uM after 24 hrs by annexin V-FITC and propidium iodide staining based flow cytometry (reference value: 0%); assay type: functional
HCT-15 [17] = assay: Induction of DNA damage in human HCT15 cells assessed as head length at 4 uM by neutral comet assay (reference value: 53 pixel); assay type: functional
HCT-15 [18] = assay: Induction of DNA damage in human HCT15 cells assessed as tail length at 4 uM by neutral comet assay (reference value: 4 pixel); assay type: functional
HCT-15 [19] = assay: Induction of apoptosis in human HCT15 cells assessed as increase in bax protein expression at 4 to 10 uM after 24 hrs by Western blot analysis; assay type: functional, cell-based
HCT-15 [20] = assay: Induction of DNA damage in human HCT15 cells assessed as comet length at 10 uM by neutral comet assay (reference value: 57 pixel); assay type: functional
HCT-15 [21] = assay: Induction of morphological changes in human HCT15 cells assessed as membrane blebbing at 4 to 10 uM after 24 hrs by inverted light microscopic analysis; assay type: functional, cell-based
HCT-15 [22] = assay: Induction of morphological changes in human HCT15 cells assessed as cell shrinkage after 24 hrs by inverted light microscopic analysis; assay type: functional, cell-based
HCT-15 [23] = assay: Induction of DNA damage in human HCT15 cells assessed as tail moment at 4 uM by neutral comet assay (reference value: 0.02); assay type: functional
HCT-15 [24] = assay: Induction of nuclear morphological changes in human HCT15 cells assessed as increase in propidium iodide positive cells at 4 to 10 uM after 24 hrs by PI-staining based fluorescence microscopic analysis; assay type: functional, cell-based
HCT-15 [25] = assay: Downregulation of cyclin B1 expression in human HCT15 cells at 4 to 10 uM after 24 hrs by Western blot anlaysis; assay type: functional, cell-based
HCT-15 [26] = assay: Induction of apoptosis in human HCT15 cells assessed as necrotic cells at 4 uM after 24 hrs by annexin V-FITC and propidium iodide staining based flow cytometry (reference value: 0.07%); assay type: functional
HCT-15 [27] = assay: Induction of DNA damage in human HCT15 cells assessed as comet length at 4 uM by neutral comet assay (reference value: 57 pixel); assay type: functional
HCT-15 [28] = assay: Induction of apoptosis in human HCT15 cells assessed as necrotic cells at 10 uM after 24 hrs by annexin V-FITC and propidium iodide staining based flow cytometry (reference value: 0.07%); assay type: functional
HCT-15 [29] = assay: Induction of apoptosis in human HCT15 cells assessed as early apoptotic cells at 4 uM after 24 hrs by annexin V-FITC and propidium iodide staining based flow cytometry (reference value: 0%); assay type: functional
HCT-15 [30] = assay: Antiproliferative activity against human HCT15 cells at 4 uM after 24 hrs by MTT assay relative to control; assay type: functional; conditions: HCT-15, 24 h
HCT-15 [31] = assay: Induction of morphological changes in human HCT15 cells assessed as lack of colony forming ability at 4 to 10 uM after 24 hrs by inverted light microscopic analysis; assay type: functional, cell-based
HCT-15 [32] = assay: Induction of apoptosis in human HCT15 cells assessed as upregulation of p53 protein expression after 24 hrs by Western blot analysis; assay type: functional, cell-based
HCT-15 [33] = assay: Induction of apoptosis in human HCT15 cells assessed as increase in caspase-3 protein expression at 4 to 10 uM after 24 hrs by Western blot analysis; assay type: functional, cell-based
HCT-15 [34] = assay: Induction of DNA damage in human HCT15 cells assessed as olive tail moment at 4 uM by neutral comet assay (reference value: 0.19); assay type: functional
HCT-15 [35] = assay: Induction of cell cycle arrest in human HCT15 cells assessed as accumulation of cells at S phase at 4 uM after 24 hrs by propidium iodide staining based flow cytometry (reference value: 8.73%); assay type: functional
HCT-15 [36] = assay: Induction of DNA damage in human HCT15 cells assessed as olive tail moment at 10 uM by neutral comet assay (reference value: 0.19); assay type: functional
HCT-15 [37] = assay: Antiproliferative activity against human HCT15 cells assessed as reduction in cell viability after 24 hrs by MTT assay; assay type: functional, cell-based
HCT-15 [38] = assay: Induction of cell cycle arrest in human HCT15 cells assessed as accumulation of cells at G2/M phase at 10 uM after 24 hrs by propidium iodide staining based flow cytometry (reference value: 13.77%); assay type: functional
HCT-15 [39] = assay: Induction of apoptosis in human HCT15 cells assessed as late apoptotic cells at 4 uM after 24 hrs by annexin V-FITC and propidium iodide staining based flow cytometry (reference value: 0%); assay type: functional
HCT-15 [40] = assay: Induction of DNA damage in human HCT15 cells assessed as tail moment at 10 uM by neutral comet assay (reference value: 0.02); assay type: functional
HCT-15 [41] = assay: Induction of cell cycle arrest in human HCT15 cells assessed as accumulation of cells at S phase at 10 uM after 24 hrs by propidium iodide staining based flow cytometry (reference value: 8.73%); assay type: functional
HCT-15 [42] = assay: Induction of apoptosis in human HCT15 cells assessed as viable cells at 4 uM after 24 hrs by annexin V-FITC and propidium iodide staining based flow cytometry (reference value: 99.93%); assay type: functional; conditions: HCT-15, 24 h, read-out: Activity
HCT-15 [43] = assay: Induction of apoptosis in human HCT15 cells assessed as reduction in bcl-2 protein expression at 4 to 10 uM after 24 hrs by Western blot analysis; assay type: functional, cell-based
HCT-15 [44] = assay: Induction of apoptosis in human HCT15 cells assessed as upregulation of p21 protein expression after 24 hrs by Western blot analysis; assay type: functional, cell-based

## C[C@H]1C(=O)O[C@H]2C[C@]1(C)OC[C@H]2[C@H]1CC[C@H]2[C@@H]3CC=C4CC=CC(=O)[C@]4(C)[C@H]3CC[C@]12C
HCT-15 [1]
  Activity: Active
HCT-15 [2]
  Activity: 66.97%
HCT-15 [3]
  Activity: 65.45%
HCT-15 [4]
  viability at 10 µM: 14.7%
HCT-15 [5]
  Activity: 45.27%
HCT-15 [6]
  Activity: 19.48%
HCT-15 [7]
  Activity: 34.54%
HCT-15 [8]
  Activity: 61.24%
HCT-15 [9]
  Activity: 19.67%
HCT-15 [10]
  Activity: Active
HCT-15 [11]
  Activity: 54.72%
HCT-15 [12]
  Activity: 19 pixel
HCT-15 [13]
  inhibition: Active
HCT-15 [14]
  Activity: Active
HCT-15 [15]
  Activity: 17 pixel
HCT-15 [16]
  Activity: 63.26%
HCT-15 [17]
  Activity: 23 pixel
HCT-15 [18]
  Activity: 12 pixel
HCT-15 [19]
  Activity: Active
HCT-15 [20]
  Activity: 36 pixel
HCT-15 [21]
  Activity: Active
HCT-15 [22]
  Activity: Dose-dependent effect
HCT-15 [23]
  Activity: 5.43
HCT-15 [24]
  Activity: Active
HCT-15 [25]
  inhibition: Active
HCT-15 [26]
  Activity: 2.1%
HCT-15 [27]
  Activity: 35 pixel
HCT-15 [28]
  Activity: 2.57%
HCT-15 [29]
  Activity: 17.79%
HCT-15 [30]
  inhibition at 4 µM: 50.7%
HCT-15 [31]
  Activity: Active
HCT-15 [32]
  Activity: Dose-dependent effect
HCT-15 [33]
  Activity: Active
HCT-15 [34]
  Activity: 5.56
HCT-15 [35]
  Activity: 13.34%
HCT-15 [36]
  Activity: 8.56
HCT-15 [37]
  inhibition: Dose-dependent effect
HCT-15 [37]; HCT-15, 24 h
  IC50: 4 µM
HCT-15 [38]
  Activity: 21.57%
HCT-15 [39]
  Activity: 58.17%
HCT-15 [40]
  Activity: 11.12
HCT-15 [41]
  Activity: 16.46%
HCT-15 [42]
  viability at 4 µM: 21.9%
HCT-15 [43]
  Activity: Active
HCT-15 [44]
  Activity: Dose-dependent effect

Reference: ChEMBL document CHEMBL4613237, “A novel phytosterol isolated from Datura inoxia, RinoxiaB is a potential cure colon cancer agent by targeting BAX/Bcl2 pathway” (Bioorg Med Chem, 2020)
